Read-outs that look alike come from different tables or passages of the source.
What was measured:
[1] = test system: carrageenan induced inflammatory pain and paw edema; experiment: Inflammatory pain and paw edema induced by carrageenan; assay type: in vivo, Male Sprague Dawley rats; details: for inhibition in vivo at 10 mg/kg / inhibition in vivo at 3 mg/kg: Rattus norvegicus, ip; for inhibition in vivo at 3 mg/kg: 3 mg/kg i.p. (one asterisk)
Method in brief: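 Male Sprague Dawley rats (~200 g) received 0.1 ml 2% λ-carrageenan subplantar in the right paw; compounds given i.p. at 3, 10 or 20 mg/kg (some p.o.) immediately after. Thermal (Hargreaves) latency, mechanical threshold, paw thickness and volume measured at 0 and 3 h; values are inter-paw differences ([…], ΔForce), volume as % of vehicle.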

COX-2 = experiment: Gene expression in LPS activated RAW 264.7 macrophages, COX-2; assay type: cell-based, mouse; details: RAW 264.7, 10 μM, LPS 1 μg/ml, RNA 3 hrs after activation, vs vehicle treated activated cells
Experimental: (§1) RAW 264.7 macrophages, a mouse cell line (ATCC # TIB 71), were grown in Dulbecco's modified Eagle's medium (DMEM) with 4 mM L-glutamine adjusted to contain 1.5 g/L sodium bicarbonate, 4.5 g/L glucose, and 10% heat inactivated fetal bovine serum. Cells were grown in tissue culture flasks and seeded at appropriate density into 6 wells tissue culture plates. Four million Raw cells in half a milliliter were stimulated with 1 μg/ml LPS E. coli 055:B5 (DIFCO Laboratories). The mouse macrophages were pre-treated for one hour with controls or 10 μM of test compounds, and later on activated with LPS. RNA samples were extracted from the cells 3 hrs after activation and gene expression levels were analyzed by real-time RT-PCR. In parallel, supernatants were collected and secretion of inflammatory mediators was analyzed using ELISA techniques according to the instructions of the kit manufacturer.
(§2) Total RNA is prepared using SV total RNA isolation system (Promega). The cells were homogenized in lysis buffer. The lysates were transferred to an RNA isolation column, treated with DNAse, washed and eluted according to kit instructions. RNA concentrations were determined using GeneQuant II (Pharmacia-Amersham). Complementary DNA (cDNA) was synthesized from total RNA using […] II reverse transcriptase (Life Technologies). 2 μg of total RNA were combined with an oligo (dT)15 primer, 0.5 mM dNTP mix, 8 units of reverse transcriptase and other reaction components up to a final volume of 20 μl, according to the kit instructions. The reaction mixture was incubated at 42° C. for 45 min and inactivated at 70° C. for 15 minutes. Quantitative real-time RT-PCR included 1 μl of the cDNA, 300 nM of the appropriate forward and reverse primers (according to the gene monitored) and 7.5 μl of the reaction mix containing buffer, nucleotides, Taq polymerase and SYBER green (SYBER Green master mix, Applied Biosystems), in a total reaction volume of 15 μl. Gene amplification was obtained using the GeneAmp 5700 sequence detection system (Applied Biosystems). Amplification included one stage of 10 minutes at 95° C. followed by 40 cycles of a 2-steps loop: 20 seconds at 95° C., and 1 minute at 60° C. During each annealing step, the amount of the amplified product was measured by the fluorescence of the double strand DNA binding dye, SYBER Green. The cycle of threshold (CT), representing the PCR cycle at which an increase in fluorescence above a baseline signal can be first detected, was determined for each product. A delay of one PCR cycle in the CT is translated into a two-fold decrease in starting template molecules and vice versa. The changes in the CT of the specific gene product were normalized to the changes in the CT of housekeeping cyclophilin or GAPDH as reference genes. Results were expressed as fold increase of gene expression in treated or untreated activated cells above the resting cells, after normalization to cyclophilin or GAPDH. Cells were also tested for viability to confirm that any effect on gene expression was indeed due to modulation of transcription of a specific target and not to cytoxicity.
(§3) Results were further expressed as percent inhibition of gene expression in compound treated activated cells over vehicle “treated” activated cells. Since the modulation of IL-10 and TNF-α gene expression by the compounds of the invention is relatively minor, it is not reported. […] Inhibition above 50% was considered significant.

MCP-1 = experiment: Gene expression in LPS activated RAW 264.7 macrophages, MCP-1; assay type: cell-based, mouse; details: RAW 264.7, 10 μM, LPS 1 μg/ml, RNA 3 hrs after activation, vs vehicle treated activated cells
Experimental: as §1, §2, §3

IL-1β = experiment: Gene expression in LPS activated RAW 264.7 macrophages, IL-1β; assay type: cell-based, mouse; details: RAW 264.7, 10 μM, LPS 1 μg/ml, RNA 3 hrs after activation, vs vehicle treated activated cells
Experimental: as §1, §2, §3

[2] = 10 mg/kg i.p., 3 hours, mechanical stimulus, read-out: Percent Inhibition of Inflammatory Pain Responses, ΔForce
[3] = 10 mg/kg i.p., 3 hours, thermal stimulus, read-out: Percent Inhibition of Inflammatory Pain Responses, ΔLT
[4] = 10 mg/kg i.p., 3 hours after carrageenan, reduction in paw swelling, read-out: Percent Inhibition of Inflammatory Pain Responses, Edema

Compound	inhibition in vivo at 10 mg/kg [1, 2]	inhibition in vivo at 10 mg/kg [1, 3]	Percent Inhibition of Inflammatory Pain Responses, Edema ([1]; 10 mg/kg i.p., 3 hours after carrageenan, reduction in paw swelling)	Percent Inhibition of Inflammatory Pain Responses, ΔForce ([1]; 10 mg/kg i.p., 3 hours, mechanical stimulus)	Percent Inhibition of Inflammatory Pain Responses, ΔLT ([1]; 10 mg/kg i.p., 3 hours, thermal stimulus)	Percent inhibition of gene expression, COX-2 (COX-2)	Percent inhibition of gene expression, MCP-1 (MCP-1)	Percent inhibition of gene expression, IL-1β (IL-1β)	inhibition in vivo at 10 mg/kg [1, 4]	reduction of paw swelling ([1]; 5 mg/kg p.o.)	reduction of paw swelling ([1]; 20 mg/kg p.o.)	inhibition in vivo at 3 mg/kg ([1]; 3 hours, mechanical stimulus, read-out: Percent Inhibition of Inflammatory Pain Responses, ΔForce)	inhibition in vivo at 3 mg/kg ([1]; 3 hours, reduction in paw swelling, read-out: Percent Inhibition of Inflammatory Pain Responses, Edema)	inhibition in vivo at 3 mg/kg ([1]; 3 hours, thermal stimulus, read-out: Percent Inhibition of Inflammatory Pain Responses, ΔLT)
CCCCC(C)(C)c1cc(O)c2c(c1)OC1C2CCC(C)(C)C1O (stereo not shown) [Compound C6S-7, 3-(1,1-dimethylpentyl)-7,7-dimethyl-5a,6,7,8,9,9a-hexahydro-dibenzofuran-1,6-diol]	41%	54%	–	–	–	–	–	–	–	–	–	–	–	–
CCCCCCC(C)(C)c1cc(O)c2c(c1)OC1(C)CCCC21 (stereo not drawn) [Compound C5S-2, 6-(1,1-dimethylheptyl)-8a-methyl-2,3,3a,8a-tetrahydro-1H-8-oxa-cyclo-penta[α]inden-4-ol]	–	–	48%	8%	43%	NO (NO indicates that the compound tested did not significantly affect the transcription of the gene assessed and that its activity is comparable to vehicle, within ±20% from this control)	NO (NO indicates that the compound tested did not significantly affect the transcription of the gene assessed and that its activity is comparable to vehicle, within ±20% from this control)	81%	–	–	–	–	–	–
CCCCC(C)(C)c1cc(O)c2c(c1)OC1(C)CCCC21 (stereo not drawn) [Compound C5S-1, 6-(1,1-dimethylpentyl)-8a-methyl-2,3,3a,8a-tetrahydro-1H-8-oxa-cyclopenta[α]inden-4-ol]	–	–	–	–	–	29%	NO (NO indicates that the compound tested did not significantly affect the transcription of the gene assessed and that its activity is comparable to vehicle, within ±20% from this control)	47%	–	–	–	–	–	–
CCCCCCC(C)(C)c1cc(O)c2c3c(oc2c1)C(=O)CCC3(C)C [Compound C6M-9, 7-(1,1-Dimethylheptyl)-9-hydroxy-1,1-dimethyl-2,3-dihydro-1H-dibenzofuran-4-one]	27%	75%	–	–	–	50%	37%	NO (NO indicates that the compound tested did not significantly affect the transcription of the gene assessed and that its activity is comparable to vehicle, within ±20% from this control)	49%	–	–	–	–	–
CCCCCCC(C)(C)c1cc(O)c2c(c1)OC1C(O)CCCCC21 (stereo not drawn) [Compound C7S-2, 2-(1,1-dimethylheptyl)-5,6,7,8,9,9a-hexahydro-4bH-10-oxa-benzo[α]azulen-4,9-diol]	–	–	–	–	–	26%	NO (NO indicates that the compound tested did not significantly affect the transcription of the gene assessed and that its activity is comparable to vehicle, within ±20% from this control)	NO (NO indicates that the compound tested did not significantly affect the transcription of the gene assessed and that its activity is comparable to vehicle, within ±20% from this control)	–	41%	50%	66%	56%	66%
CCCCC(C)(C)c1cc(O)c2c(c1)OC1CCCCC21 (stereo not shown) [Compound C6S-3, 3-(1,1-dimethylpentyl)-5a,6,7,8,9,9a-hexahydro-dibenzofuran-1-ol]	49%	84%	–	–	–	65%	55%	74%	48%	–	–	–	–	–
CCCCCCC(C)(C)c1cc(O)c2c(c1)OC1C=CCCC21 (stereo not shown) [Compound C6S-2, 3-(1,1-Dimethylheptyl)-5a,8,9,9a-tetrahydro-dibenzofuran-1-ol]	30%	58%	–	–	–	61%	44%	58%	36%	–	–	–	–	–
